Test results as given in paper PMC12162962, “The inhibitory potential of three scorpion venom peptides against multidrug-resistant Klebsiella pnemoniae” (Frontiers in Microbiology, 2025).
No end group written: not given here.

Key:
S. thyphimurium = experiment: Broth microdilution MIC/MBC; assay type: cell-based; settings: for MIC: broth microdilution, 1 × 10^5 CFU/mL, concentration inhibiting 95% bacterial growth, triplicate; for MBC: lowest concentration killing 99.9% of the bacterial load after 18 h at 37°C on MHA
K. pneumoniae ATCC 10031 = experiment: Broth microdilution MIC/MBC; assay type: cell-based, Klebsiella pneumoniae; settings: reference strain ATCC 10031; for MIC: broth microdilution, 1 × 10^5 CFU/mL, concentration inhibiting 95% bacterial growth, triplicate; for MBC: lowest concentration killing 99.9% of the bacterial load after 18 h at 37°C on MHA
Protocol: (§1) Antibacterial activity of peptides was conducted against a panel of bacterial strains both Gram-positive (Staphylococcus aureus ATCC 6538, Enterococcus faecalis ATCC 29212, Listeria monocytogenes MB 677), and Gram-negative (E. coli ATCC 11229, K. pneumoniae ATCC 10031, Pseudomonas aeruginosa O1, Burkordelia cepacea LGM16656). The analysis has been extended to clinical isolates of K. pneumoniae carbapenemases producers isolated and characterized at the Microbiology Laboratory of the University Hospital “Luigi Vanvitelli,” Naples, Italy, using a BD Phoenix M50 instrument (Becton, Dickinson and Company, Franklin Lakes, NJ, USA) and listed in Table 1. The test was carried out as reported elsewhere ([Folliero et al., 2022]). The final bacterial concentration inoculated in the 96-well plate was 1 × 10^5 CFU/mL. Vancomycin (5 μg/mL) and meropenem (10 μg/mL) (Burlington, MA, USA) were used as positive control (CTRL+) against Gram-positive and Gram-negative bacteria, respectively.
(§2) The concentration of peptides inhibiting 95% bacterial growth was recorded as MIC. After setting the MIC value, 50 μL were taken from the 2MIC, 1MIC, and ½ MIC and spotted on MHA. The plates were incubated for 18 h at 37°C. The number of colony-forming units was calculated, and MBC was recorded as the lowest concentration of peptide capable of killing 99.9% of the bacterial load after 18 h of incubation.

[1] = system: Burkordelia cepacea LGM16656 (B. cepacia); experiment: Broth microdilution MIC/MBC; assay type: cell-based; settings: for MIC: broth microdilution, 1 × 10^5 CFU/mL, concentration inhibiting 95% bacterial growth, triplicate
Protocol: as §1, §2

E. coli ATCC 11229 = experiment: Broth microdilution MIC/MBC; assay type: cell-based; settings: for MIC: broth microdilution, 1 × 10^5 CFU/mL, concentration inhibiting 95% bacterial growth, triplicate; for MBC: lowest concentration killing 99.9% of the bacterial load after 18 h at 37°C on MHA
Protocol: as §1, §2

[2] = system: Enterococcus faecalis ATCC 29212; experiment: Broth microdilution MIC/MBC; assay type: cell-based; settings: for MIC: broth microdilution, 1 × 10^5 CFU/mL, concentration inhibiting 95% bacterial growth, triplicate; for MBC: lowest concentration killing 99.9% of the bacterial load after 18 h at 37°C on MHA
Protocol: as §1, §2

[3] = system: Listeria monocytogenes MB 677; experiment: Broth microdilution MIC/MBC; assay type: cell-based; settings: for MIC: broth microdilution, 1 × 10^5 CFU/mL, concentration inhibiting 95% bacterial growth, triplicate; for MBC: lowest concentration killing 99.9% of the bacterial load after 18 h at 37°C on MHA
Protocol: as §1, §2

[4] = system: Pseudomonas aeruginosa O1; experiment: Broth microdilution MIC/MBC; assay type: cell-based; settings: 1 × 10^5 CFU/mL, concentration inhibiting 95% bacterial growth, triplicate
Protocol: as §1, §2

[5] = system: Staphylococcus aureus ATCC 6538; experiment: Broth microdilution MIC/MBC; assay type: cell-based; settings: for MIC: broth microdilution, 1 × 10^5 CFU/mL, concentration inhibiting 95% bacterial growth, triplicate; for MBC: lowest concentration killing 99.9% of the bacterial load after 18 h at 37°C on MHA
Protocol: as §1, §2

[6] = system: K. pneumoniae 1711 (KPC, class A); experiment: Broth microdilution MIC/MBC, clinical isolate; assay type: cell-based, Klebsiella pneumoniae; settings: clinical isolate 1711, KPC; for MIC: rectal swab, broth microdilution, 95% growth inhibition
Protocol: as §1, §2

[7] = system: K. pneumoniae 1745 (KPC, class A); experiment: Broth microdilution MIC/MBC, clinical isolate; assay type: cell-based, Klebsiella pneumoniae; settings: clinical isolate 1745, KPC; for MIC: ulcer, broth microdilution, 95% growth inhibition; for MBC: killing 99.9% after 18 h
Protocol: as §1, §2

[8] = system: K. pneumoniae 1746 (VIM, class B); experiment: Broth microdilution MIC/MBC, clinical isolate; assay type: cell-based, Klebsiella pneumoniae; settings: clinical isolate 1746, VIM; for MIC: rectal swab, broth microdilution, 95% growth inhibition
Protocol: as §1, §2

[9] = system: K. pneumoniae 311 (OXA-48, class D); experiment: Broth microdilution MIC/MBC, clinical isolate; assay type: cell-based, Klebsiella pneumoniae
Protocol: as §1, §2

[10] = system: several strains of K. pneumoniae KPC-producers; experiment: MIC/MBC summarised over the clinical isolates; assay type: cell-based, Klebsiella pneumoniae; settings: summary over strains 311, 1746, 1745, 1711
Protocol: as §1, §2

[11] = Stability of peptides in serum; assay type: in vitro ADME; settings: 2.0 mg/mL peptide, 37°C; for remaining at 16 h, 2 mg/mL: RP-HPLC peak area vs t0 (100%), mean of duplicates, read-out: Peptide remaining in solution after 16 h in serum
Protocol: Peptide stability in serum was performed as previously reported ([Russo et al., 2021]). Briefly, peptides were diluted in serum to a final concentration of 2.0 mg/mL and incubated at 37°C. Aliquots of each peptide taken at different times up to 16 h were analyzed by RP-HPLC on an Aeris PEPTIDE XB-C18 column (2.1 × 100 mm, 3.6 μm). Peptide concentrations in solution were determined from RP-HPLC peak areas compared to peak areas obtained at t0 (set as 100%).

[12] = system: HaCaT cell line (human keratinocytes cells); experiment: MTT cytotoxicity on HaCaT cells; assay type: cell-based; settings: 100 μM, 24 h
Protocol: Peptides cytotoxicity was evaluated on the HaCaT cell line (human keratinocytes cells) obtained from the CLS–Cell Lines Service (Eppelheim, Germany). The cell monolayer was treated with different peptide concentrations from 3 to 100 μM for 24 h. Then, methylthiazolyldiphenyl-tetrazolium bromide (MTT) (Sigma-Aldrich, St. Louis, MO, USA) assay was performed as already reported ([Ambrosino et al., 2023]). Untreated cells represented positive control (CTRL+), while cells treated with 100% DMSO represented negative control (CTRL−). Absorbance was recorded at 570 nm, and cell viability was calculated with Equation 1:
(1) %ofcellviability=absorbanceoftreatedcells/absorbanceofuntreatedcellsx100

K. pneumoniae = experiment: microbe, parasite or virus in culture; assay type: cell-based, Klebsiella pneumoniae
Protocol: To assess the combined effect of peptides and antibiotics, a checkerboard test was performed. An inoculum of K. pneumoniae at 2 × 10^5 CFU/mL was used for the assay. Serial dilutions of peptides and meropenem were executed, and 10 μL of peptide and antibiotic were added into the 96-well plate, individually and/or in combination. The plate was incubated for 24 h to 37°C and the combinatorial effect was calculated as an index of fractional inhibitory concentration (FICI) with the following formula ([Giugliano et al., 2023]).
FICI=MICmeropenem in combination/MICmeropenem+MICpeptide in combination/MICpeptide
• FICI ≤ 0.5, synergy. • 0.5 < FICI ≤ 1.0, partial synergy. • […], no interaction. • FICI > 4.0, antagonism.

| Molecule | MIC (S. thyphimurium) | MBC (S. thyphimurium) | MIC (K. pneumoniae ATCC 10031) | MBC (K. pneumoniae ATCC 10031) | MIC [1] | MIC (E. coli ATCC 11229) | MBC (E. coli ATCC 11229) | MIC [2] | MBC [2] | MIC [3] | MBC [3] | MIC [4] | MIC [5] | MBC [5] | MIC [6] | MIC [7] | MBC [7] | MIC [8] | Cell viability [12] | remaining at 16 h, 2 mg/mL [11] | also measured |
| --- | --- | --- | --- | --- | --- | --- | --- | --- | --- | --- | --- | --- | --- | --- | --- | --- | --- | --- | --- | --- | --- |
| GILGKLWEGFKSIV-NH2 [Pantinin 1] | 50 µM | 50 µM | 6.25 µM | 12.5 µM | 25 µM | 12.5 µM | 25 µM | 12.5 µM | 25 µM | 6.25 µM | 12.5 µM | 50 µM | 6.25 µM | 6.25 µM | 25 µM | 25 µM | 25 µM | 25 µM | approximately 70% | – | MBC ([1]; lowest concentration killing 99.9% of the bacterial load after 18 h at 37°C on MHA): 25 µM; MBC ([6]; killing 99.9% after 18 h): 25 µM; MIC ([9]; clinical isolate 311, OXA-48, rectal swab, broth microdilution, 95% growth inhibition): 25 µM; MBC ([9]; clinical isolate 311, OXA-48, killing 99.9% after 18 h): 25 µM; MIC against the tested clinical K. pneumoniae strains [10]: 25 µM; Stability in serum in the time interval analysed ([11]; up to 16 h, RP-HPLC peak area vs t0, duplicates): stable; FICI (K. pneumoniae; pantinin 1 (3 μM) with meropenem (0.62 μg/mL)): 0.624 |
| C[C@@H](O)[C@H]1C(=O)N2C(C(=O)O)=C(S[C@@H]3CN[C@H](C(=O)N(C)C)C3)[C@H](C)[C@H]12 [meropenem] | – | – | – | – | – | – | – | – | – | – | – | – | – | – | – | – | – | – | – | – | MIC (K. pneumoniae; Klebsiella pneumoniae, checkerboard, 2 × 10^5 CFU/mL, 24 h, 37°C, read-out: MIC of meropenem alone): 5 µg/mL; MIC of meropenem in combination (K. pneumoniae; combined with 3 μM of pantinin 1, checkerboard, 24 h, 37°C): 0.62 µg/mL |
| IFGAIWKGISSLL-NH2 [Pantinin 2] | 50 µM | 50 µM | 12.5 µM | 12.5 µM | 50 µM | 25 µM | 25 µM | 12.5 µM | 12.5 µM | 6.25 µM | 12.5 µM | 50 µM | 12.5 µM | 12.5 µM | 50 µM | 50 µM | 50 µM | 25 µM | 25% | ~70% | MBC ([8]; killing 99.9% after 18 h): 50 µM |
| FLSTIWNGIKSLL-NH2 [Pantinin 3] | 50 µM | – | 25 µM | – | 50 µM | 50 µM | – | 25 µM | 25 µM | 25 µM | – | 50 µM | 12.5 µM | – | – | – | – | 50 µM | 10% | ~80% | – |
